In patent US10766890B2, “Hepatitis B core protein modulators” (Assembly Biosciences, Inc., priority 2015, dated 2020):

Key:
[1] = system: AD38 cells; experiment: Viability of AD38 cells, Promega CellTiter-Glo; assay type: cell-based; conditions: 10 μM compound, 6 days, CellTiter-Glo luminescence, controls being 100%
Description: (§1) Example 63: Assay Measuring Activity of Compounds on Viral Production in and on Viability of AD38 Cells
(§2) AD38 cells were then re-suspended with 10 mL of Treatment Medium and counted. Wells of a collagen coated 96-well NUNC microtiter plate were seeded at 50,000/well in 180 μL of Treatment Medium, and 20 μL of in treatment media with either 10% DMSO (Control) or a 10× solution of compound in 10% DMSO was added. Plates were incubated for 6 days at 37° C.
At the end of compound treatment period cell viability was assessed using a Promega CellTiter-Glo protocol. All supernatant was removed the previously treated 96-well microtiter plate, and 50 μL Tetracycline-free treatment medium (DMEM/F12 (1:1), 1×Pen/step (cat#: 30-002-CL, Mediatech, Inc), with 2% FBS, Tet-system approved (cat#: 631106, Clontech), and 1% DMSO was added back to each well. Another 50 μL of CellTiter-Glo reagent solution (Promega, G7573) was then added at room temperature and the contents mixed for 2 minutes on an orbital shaker to induce cell lysis. This was followed by incubation at room temperature for 10 minutes to stabilize the luminescent signal. The luminescence was recorded for 0.2 seconds per well on a Tecan multimode platereader (Infinite M1000 pro). The luminescent signal from each well was normalized against that of untreated (DMSO) control wells. All results in Table 3 were reported with percent viability (with controls being 100%).

[2] = system: HBV; experiment: Viral load production in AD38 cells, quantitative PCR of the core sequence in supernatant; assay type: cell-based; conditions: 10 μM compound, 6 days at 37° C., supernatant qPCR vs DMSO control; for activity at 10 µM: Hepatitis B virus, 144 h, read-out: AD38 Viral Load (%) (VL with cmpd/VL in DMSO control) at 10 μM
Description: as §1, §2
Viral load production was assayed by quantitative PCR of the core sequence. […] The PCR mixture was incubated at 45° C. for 5 minutes, then 95° C. for 10 min, followed by 40 cycles of 10 seconds at 95° C. and 20 seconds at 60° C. Viral load was quantitated against known standards by using ViiA™ 7 Software. Viral load in the supernatant from wells with treated cells were compared against viral load in supernatant from DMSO control wells (≥3 per plate).

| SMILES | AD38 Viability Normalized Result (cmpd/DMSO %) at 10 μM [1] | activity at 10 µM [2] | AD38 Viral Load (%) (VL with cmpd/VL in DMSO control) at 10 μM [2] |
| --- | --- | --- | --- |
| O=C(NCc1cccc(Oc2cccc(O)c2)c1)c1ccc2c(c1)NC(=O)c1ccccc1O2 [Compound 744, N-(3-(3-hydroxyphenoxy)benzyl)-11-oxo-10,11-dihydrodibenzo[b,f][1,4]oxazepine-8-carboxamide] | 108% | 62.9% | – |
| COc1cccc(Oc2cccc(CNC(=O)c3ccc4c(c3)NC(=O)c3ccccc3O4)c2)c1 [Compound 744-A, N-(3-(3-methoxyphenoxy)benzyl)-11-oxo-10,11-dihydrodibenzo[b,f][1,4]oxazepine-8-carboxamide] | 103% | 8.9% | – |
| O=C(NCc1cccc(Oc2ccc(O)cc2)c1)c1ccc2c(c1)NC(=O)c1ccccc1O2 [Compound 745, N-(3-(4-hydroxyphenoxy)benzyl)-11-oxo-10,11-dihydrodibenzo[b,f][1,4]oxazepine-8-carboxamide] | 108% | 38.7% | – |
| COc1ccc(Oc2cccc(CNC(=O)c3ccc4c(c3)NC(=O)c3ccccc3O4)c2)cc1 [Compound 745-A, N-(3-(4-methoxyphenoxy)benzyl)-11-oxo-10,11-dihydrodibenzo[b,f][1,4]oxazepine-8-carboxamide] | 92% | 16.1% | – |
| NC(=O)c1ccc(-c2ccc(CNC(=O)c3ccc4c(c3)NC(=O)c3ccccc3S4(=O)=O)cc2)cc1 [Compound 765] | 103% | – | 59.4% |
| O=C(NCc1cccc(-c2ccc(O)cc2)c1)c1ccc2c(c1)NC(=O)c1ccccc1S2(=O)=O [Compound 773] | 87% | 0.6% | – |
| O=C(NCc1cccc(-c2cccc(O)c2)c1)c1ccc2c(c1)NC(=O)c1ccccc1S2(=O)=O [Compound 774] | 113% | 48.5% | – |
| COc1ccc(-c2ccc(CNC(=O)c3ccc4c(c3)NC(=O)c3ccccc3S4(=O)=O)cc2)cn1 [Compound 775, N-(4-(6-methoxypyridin-3-yl)benzyl)-11-oxo-10,11-dihydrodibenzo[b,f][1,4]thiazepine-8-carboxamide 5,5-dioxide] | 93% | 2.6% | – |
| O=C(NCc1ccc(-c2ccc(O)nc2)cc1)c1ccc2c(c1)NC(=O)c1ccccc1S2(=O)=O [Compound 776, N-(4-(6-hydroxypyridin-3-yl)benzyl)-11-oxo-10,11-dihydrodibenzo[b,f][1,4]thiazepine-8-carboxamide 5,5-dioxide] | 100% | 63.1% | – |
| Nc1ncc(-c2ccc(CNC(=O)c3ccc4c(c3)NC(=O)c3ccccc3S4(=O)=O)cc2)cn1 [Compound 777] | 99% | 11.7% | – |
| O=C(NCc1cccc(Cc2cccc(O)c2)c1)c1ccc2c(c1)NC(=O)c1ccccc1S2(=O)=O [Compound 808, N-(3-(3-hydroxybenzyl)benzyl)-11-oxo-10,11-dihydrodibenzo[b,f][1,4]thiazepine-8-carboxamide 5,5-dioxide] | 90% | 3% | – |
| COc1cccc(Cc2cccc(CNC(=O)c3ccc4c(c3)NC(=O)c3ccccc3S4(=O)=O)c2)c1 [Compound 808-A, N-(3-(3-methoxybenzyl)benzyl)-11-oxo-10,11-dihydrodibenzo[b,f][1,4]thiazepine-8-carboxamide 5,5-dioxide] | 84% | 1.5% | – |
| O=C(NCc1cccc(Cc2ccc(O)cc2)c1)c1ccc2c(c1)NC(=O)c1ccccc1S2(=O)=O [Compound 809, N-(3-(4-hydroxybenzyl)benzyl)-11-oxo-10,11-dihydrodibenzo[b,f][1,4]thiazepine-8-carboxamide 5,5-dioxide] | 77% | 1.1% | – |
| COc1ccc(Cc2cccc(CNC(=O)c3ccc4c(c3)NC(=O)c3ccccc3S4(=O)=O)c2)cc1 [Compound 809-A, N-(3-(4-methoxybenzyl)benzyl)-11-oxo-10,11-dihydrodibenzo[b,f][1,4]thiazepine-8-carboxamide 5,5-dioxide] | 85% | 0.6% | – |
| O=C(NCc1cccc(Oc2cccc(O)c2)c1)c1ccc2c(c1)NC(=O)c1ccccc1S2(=O)=O [Compound 810, N-(3-(3-hydroxyphenoxy)benzyl)-11-oxo-10,11-dihydrodibenzo[b,f][1,4]thiazepine-8-carboxamide 5,5-dioxide] | 93% | 3.2% | – |
| COc1cccc(Oc2cccc(CNC(=O)c3ccc4c(c3)NC(=O)c3ccccc3S4(=O)=O)c2)c1 [Compound 810-A, N-(3-(3-methoxyphenoxy)benzyl)-11-oxo-10,11-dihydrodibenzo[b,f][1, 4]thiazepine-8-carboxamide 5,5-dioxide] | 90% | 1.1% | – |
| O=C(NCc1cccc(Oc2ccc(O)cc2)c1)c1ccc2c(c1)NC(=O)c1ccccc1S2(=O)=O [Compound 811, N-(3-(4-hydroxyphenoxy)benzyl)-11-oxo-10,11-dihydrodibenzo[b,f][1,4]thiazepine-8-carboxamide 5,5-dioxide] | 95% | 1.2% | – |
| COc1ccc(Oc2cccc(CNC(=O)c3ccc4c(c3)NC(=O)c3ccccc3S4(=O)=O)c2)cc1 [Compound 811-A, N-(3-(4-methoxyphenoxy)benzyl)-11-oxo-10,11-dihydrodibenzo[b,f][1,4]thiazepine-8-carboxamide 5,5-dioxide] | 86% | 1.9% | – |
| O=C(NCc1cccc(Sc2cccc(O)c2)c1)c1ccc2c(c1)NC(=O)c1ccccc1S2(=O)=O [Compound 812, N-(3-((3-hydroxyphenyl)thio)benzyl)-11-oxo-10,11-dihydrodibenzo[b,f][1,4]thiazepine-8-carboxamide 5,5-dioxide] | 99% | 5.1% | – |
| COc1cccc(Sc2cccc(CNC(=O)c3ccc4c(c3)NC(=O)c3ccccc3S4(=O)=O)c2)c1 [Compound 812-A, N-(3-((3-methoxyphenyl)thio)benzyl)-11-oxo-10,11-dihydrodibenzo[b,f][1,4]thiazepine-8-carboxamide 5,5-dioxide] | 66% | 1.4% | – |
| COc1ccc(Sc2cccc(CNC(=O)c3ccc4c(c3)NC(=O)c3ccccc3S4(=O)=O)c2)cc1 [Compound 813, N-(3-((4-methoxyphenyl)thio)benzyl)-11-oxo-10,11-dihydrodibenzo[b,f][1,4]thiazepine-8-carboxamide 5,5-dioxide] | 44% | 1.2% | – |
